Source: paper PMC4370192, “Discovery of Specific Inhibitors for Intestinal E. coli β-Glucuronidase through In Silico Virtual Screening” (The Scientific World Journal, 2015)

Tests used:
[1] = molecular target: T1, E. coli β-glucuronidase (eβG) (Escherichia coli, UniProt P05804); experiment: In vitro βG-activity assay (pNPG hydrolysis), eβG; format: biochemical; settings: for eβG activity (%) with 50 μM compound: pH 7.3, percent of activity vs untreated control
T1 construct: histidine tag (N); made in house; host or cells: E. coli BL21 (DE3)
T1 sequence (P05804 whole entry): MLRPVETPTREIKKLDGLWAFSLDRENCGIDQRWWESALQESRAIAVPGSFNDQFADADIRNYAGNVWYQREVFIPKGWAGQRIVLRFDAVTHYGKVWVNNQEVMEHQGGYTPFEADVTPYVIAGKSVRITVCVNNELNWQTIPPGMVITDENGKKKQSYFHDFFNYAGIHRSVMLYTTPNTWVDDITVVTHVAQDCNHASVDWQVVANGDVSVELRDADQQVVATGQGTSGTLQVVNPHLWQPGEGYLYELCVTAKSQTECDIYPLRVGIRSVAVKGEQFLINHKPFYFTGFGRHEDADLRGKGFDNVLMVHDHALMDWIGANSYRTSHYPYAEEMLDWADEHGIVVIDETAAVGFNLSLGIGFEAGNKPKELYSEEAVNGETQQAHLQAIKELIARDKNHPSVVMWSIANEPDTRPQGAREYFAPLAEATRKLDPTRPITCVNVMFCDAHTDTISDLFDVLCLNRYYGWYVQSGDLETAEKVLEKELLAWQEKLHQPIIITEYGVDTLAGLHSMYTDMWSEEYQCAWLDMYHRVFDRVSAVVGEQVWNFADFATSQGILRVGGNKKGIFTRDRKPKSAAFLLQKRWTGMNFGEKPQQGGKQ
Experimental: (§1) Plasmid pRESTB containing βG gene and a histidine tag at the N-terminus was constructed as described. Recombinant βG (human and E. coli) was produced by isopropyl β-D-thiogalactopyranoside (IPTG) induction of BL21 (DE3) bacteria. βG was purified from bacterial supernatants by affinity chromatography on nickels Sepharose 6 Fast Flow (GE Healthcare). The column was washed by phosphate-buffered saline (PBS), with 50 mM imidazole, and βG was eluted by PBS with 250 mM imidazole. The purified βG was desalted on a Sephadex G-25 column equilibrated with PBS and stored at −80°C.
The candidate compounds were purchased from SPECS (The Netherlands). Each candidate was provided as a solid power and dissolved in 100% DMSO (Sigma-Aldrich) to 10 mM as stock. Candidates were screened for their inhibition specificity of eβG versus hβG, which were conducted at pH 7.3 or pH 5.4, in triplicate, respectively. 40 μL purified βG was treated with 10 μL compound solution at 37°C for 30 min and sequentially incubated with 50 μL of pNPG (Sigma-Aldrich) at 37°C for 30 min. Reactions were quenched with 5 μL of 2 N sodium hydroxide (Sigma-Aldrich). Each reaction consisted of 3.75 ng purified βG, 50 μM compound, and 5 mM pNPG in PBS containing 10% DMSO and 0.05% BSA (Sigma-Aldrich). βG-activities were measured by color development of pNP detected on a microplate reader at OD 405 nm. […] For IC50 determination, compounds at various concentrations (100 μM to 0.001 μM) were added.
Supplementary file 740815.f1.pdf: Fifty-nine candidate compounds were acquired from the initial virtually screening which was designed to target the bacterial loop of eβG and its active site. The docking energy scores of 59 candidate compounds measured by the DOCK program are -43 to -55 kcal/mol. (Table S1) The candidate compounds were purchased from SPECS (Zoetermeer, The Netherlands). Each candidate was rovided as a solid power and dissolved in 100% DMSO (Sigma-Aldrich, MO, USA) to 10 mM as stock. Candidates were screening for their inhibition specificity of eβG verse hβG, which were conducted at pH 7.3 or pH 5.4 in triplicate, respectively. 40 µL purified βG was treated with 10 µL compound solution at 37 °C for 30 min, and sequentially incubated with 50 µL of pNPG (Sigma-Aldrich) at 37 °C for 30 min. Reactions were quenched with 5 µL of 2 N sodium hydroxide (Sigma-Aldrich). Each reaction consisted of 3.75 ng purified βG, 50 µM compound, and 5 mM pNPG in PBS containing 10% DMSO and 0.05% BSA (Sigma-Aldrich). βG-activities were measured by color development of pNP detected on a microplate reader at OD 405 nm. […] Especially, the inhibiting ability against eβG activity was >95% in 7 candidates of eβG specific inhibitors (Table S1).
(§2) Fifty-nine candidate compounds were acquired from the initial virtually screening which was designed to target the bacterial loop of eβG and its active site. The docking energy scores of 59 candidate compounds measured by the DOCK program are -43 to -55 kcal/mol. (Table S1) The candidate compounds were purchased from SPECS (Zoetermeer, The Netherlands). Each candidate was provided as a solid power and dissolved in 100% DMSO (Sigma-Aldrich, MO, USA) to 10 mM as stock. Candidates were screening for their inhibition specificity of eβG verse hβG, which were conducted at pH 7.3 or pH 5.4 in triplicate, respectively. 40 μL purified βG was treated with 10 μL compound solution at 37 °C for 30 min, and sequentially incubated with 50 μL of pNPG (Sigma-Aldrich) at 37 °C for 30 min. Reactions were quenched with 5 μL of 2 N sodium hydroxide (Sigma-Aldrich). Each reaction consisted of 3.75 ng purified βG, 50 μM compound, and 5 mM pNPG in PBS containing 10% DMSO and 0.05% BSA (Sigma-Aldrich). βG-activities were measured by color development of pNP detected on a microplate reader at OD 405 nm. […]
percent of βG activity compared with the untreated control.
Especially, the inhibiting ability against eβG activity was >95% in 7 candidates of eβG specific inhibitors (Table S1).
Table S1. […]

human βG (hβG) = molecular target: T2, human βG (hβG) (Homo sapiens, UniProt P08236); experiment: In vitro βG-activity assay (pNPG hydrolysis), hβG; format: biochemical; settings: pH 5.4, percent of activity vs untreated control
T2 construct: histidine tag (N); made in house; host or cells: E. coli BL21 (DE3)
T2 sequence (P08236 23-651): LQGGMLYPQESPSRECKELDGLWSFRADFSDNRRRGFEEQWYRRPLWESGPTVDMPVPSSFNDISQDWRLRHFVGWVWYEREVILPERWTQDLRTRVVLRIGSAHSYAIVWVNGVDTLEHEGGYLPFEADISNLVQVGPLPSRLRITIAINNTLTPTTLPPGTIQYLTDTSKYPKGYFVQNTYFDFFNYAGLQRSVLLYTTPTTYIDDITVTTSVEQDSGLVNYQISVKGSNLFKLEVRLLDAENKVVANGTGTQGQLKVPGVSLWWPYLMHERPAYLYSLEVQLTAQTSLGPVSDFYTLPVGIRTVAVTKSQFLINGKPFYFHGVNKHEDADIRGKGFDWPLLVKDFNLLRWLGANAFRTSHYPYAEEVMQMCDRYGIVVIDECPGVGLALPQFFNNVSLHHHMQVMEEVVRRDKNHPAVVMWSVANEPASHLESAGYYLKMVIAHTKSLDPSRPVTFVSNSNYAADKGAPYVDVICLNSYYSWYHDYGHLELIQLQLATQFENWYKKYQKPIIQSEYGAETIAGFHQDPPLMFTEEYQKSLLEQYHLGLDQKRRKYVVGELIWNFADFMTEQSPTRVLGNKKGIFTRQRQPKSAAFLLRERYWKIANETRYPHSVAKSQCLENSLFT
Experimental: as §1
The candidate compounds were purchased from SPECS (The Netherlands). Each candidate was provided as a solid power and dissolved in 100% DMSO (Sigma-Aldrich) to 10 mM as stock. Candidates were screened for their inhibition specificity of eβG versus hβG, which were conducted at pH 7.3 or pH 5.4, in triplicate, respectively. 40 μL purified βG was treated with 10 μL compound solution at 37°C for 30 min and sequentially incubated with 50 μL of pNPG (Sigma-Aldrich) at 37°C for 30 min. Reactions were quenched with 5 μL of 2 N sodium hydroxide (Sigma-Aldrich). Each reaction consisted of 3.75 ng purified βG, 50 μM compound, and 5 mM pNPG in PBS containing 10% DMSO and 0.05% BSA (Sigma-Aldrich). βG-activities were measured by color development of pNP detected on a microplate reader at OD 405 nm.
as §2, with “(Table” for “Fifty-nine candidate compounds were acquired from the initial virtually screening which was designed to target the bacterial loop of eβG and its active site. The docking energy scores of 59 candidate compounds measured by the DOCK program are -43 to -55 kcal/mol. (Table”, “rovided” for “provided”, “µL” for “μL”, “µM” for “μM”
candidate compounds were purchased from SPECS (Zoetermeer, The Netherlands). Each candidate was provided as a solid power and dissolved in 100% DMSO (Sigma-Aldrich, MO, USA) to 10 mM as stock. Candidates were screening for their inhibition specificity of eβG verse hβG, which were conducted at pH 7.3 or pH 5.4 in triplicate, respectively. 40 μL purified βG was treated with 10 μL compound solution at 37 °C for 30 min, and sequentially incubated with 50 μL of pNPG (Sigma-Aldrich) at 37 °C for 30 min. Reactions were quenched with 5 μL of 2 N sodium hydroxide (Sigma-Aldrich). Each reaction consisted of 3.75 ng purified βG, 50 μM compound, and 5 mM pNPG in PBS containing 10% DMSO and 0.05% BSA (Sigma-Aldrich). βG-activities were measured by color development of pNP detected on a microplate reader at OD 405 nm.

Structure (SMILES) | eβG activity (%) with 50 μM compound [1] [%] | hβG activity (%) with 50 μM compound (human βG (hβG)) [%] | inhibition at 10 µM ([1]; read-out: inhibition of eβG activity) [%] | IC50 ([1]; recombinant eβG, pNPG substrate, pH 7.3) [nM]
COc1cc(C(=O)NCC(=N)N)cc(OC)c1OC [Compound 0015] | 17.59 | 108.51 | – | –
COc1cc2ccccc2cc1C(=O)N1CCN(C)CC1 [Compound 0030] | 58.19 | 111.74 | – | –
Cc1cc2nc(C[n+]3cccc(C(N)=O)c3)[nH]c2cc1C [Compound 0136] | 19.16 | 108.76 | – | –
CN1CCN(CC(=O)Nc2c(C#N)cnn2-c2ccccc2)CC1 [Compound 0220] | 47.15 | 113.55 | – | –
CCOC(=O)N1CCC2(CC1)OS(=O)(=O)C=C2N [Compound 0523] | 31.77 | 109.26 | – | –
Cc1cccc2n(C)c(/C=N/N=C(N)N)c[n+]12 [Compound 0956] | 29.70 | 103.31 | – | –
O=C(O)C1CCCCC1C(=O)Nc1ccc(Oc2ccc(Cl)cc2)cc1 (stereo not drawn) [Compound 1013] | 34.76 | 126.45 | – | –
CCN1C(=O)c2cccc3c(S(=O)(=O)N4CCN(C)CC4)ccc1c23 [Compound 1046] | 45.94 | 106.69 | – | –
CCOC(=O)c1ccc(NC(=S)N2CCN(C)CC2)cc1 [Compound 1089] | 47.22 | 119.17 | – | –
Cc1cc(/C=C2\SC(=Nc3ccc(F)cc3)NC2=O)c(C)n1-c1ccc(S(N)(=O)=O)cc1 [Compound 1135] | 3.70 | 118.10 | – | –
Cc1ccccc1NC(=O)c1cccc(NC(=O)c2cc(Cl)c(Cl)cc2C(=O)O)c1 [Compound 1306] | 29.20 | 105.45 | – | –
Cc1ccc(Cl)cc1NC1=NS(=O)(=O)c2ccccc21 [Compound 1448] | 11.11 | 109.67 | – | –
CCc1sc(NC(=O)C2CCCCC2C(=O)O)nc1-c1ccccc1 (stereo not drawn) [Compound 1501] | 27.85 | 105.12 | – | –
NC(N)=Nc1nc2ccc(Br)cc2c(=O)[nH]1 [Compound 2020] | 13.68 | 84.13 | – | –
N=c1c(Nc2ccc(F)cc2)nnc(N)n1C(=O)c1ccccc1 [Compound 2074] | 12.46 | 101.07 | – | –
CNC(=S)Nn1cnc2c(cnn2-c2ccccc2)c1=N [Compound 2138] | 19.23 | 107.27 | – | –
CN1CCN(C(=O)c2cc3cc([N+](=O)[O-])ccc3oc2=O)CC1 [Compound 2715] | 53.06 | 114.38 | – | –
Cc1cccnc1NCn1c(=O)oc2cc([N+](=O)[O-])ccc21 [Compound 3043] | 25.14 | 103.55 | – | –
CN1CCN(Cc2nc3sc4c(c3c(=O)[nH]2)CCCC4)CC1 [Compound 3181] | 30.27 | 88.02 | – | –
COc1cc(C(=O)OC(C)CN2CCN(C)CC2)cc(OC)c1OC (stereo not drawn) [Compound 3250] | 33.62 | 96.94 | – | –
CC(CNS(=O)(=O)c1ccc(Cl)cc1)n1cncn1 (stereo not drawn) [Compound 3379] | 31.70 | 102.56 | – | –
O=C1SCCC1NS(=O)(=O)c1cc(Cl)ccc1Cl (stereo not drawn) [Compound 3927] | 18.73 | 106.86 | – | –
Cc1ccc2c(c1)C1CN(C)CCC1N2C(=O)c1cc(Cl)ccc1[N+](=O)[O-] (stereo not drawn) [Compound 3959] | 42.88 | 105.45 | – | –
Cc1ccc(S(=O)(=O)N=C2C=C(Sc3nnc[nH]3)C(=O)c3ccccc32)cc1 [Compound 4041, 4-methyl-N-(4-oxo-3-(1H-1,2,4-triazol-5ylsulfanyl)-1(4H)-naphthalenylidene)benzenesulfonamide] | – | – | > 80 | 2800
